Measurements as given in ChEMBL document CHEMBL3808348, “Rational Design, Synthesis, and Biological Evaluation of 7-Azaindole Derivatives as Potent Focused Multi-Targeted Kinase Inhibitors” (J Med Chem, 2016).

Key:
[1] = molecular target: Tyrosine-protein kinase FRK (Homo sapiens, UniProt P42685); assay: Inhibition of GST-tagged full length human recombinant FRK expressed in baculovirus using Fluorescein-Poly GT as substrate
[2] = molecular target: T1, Tyrosine-protein kinase Lck (Homo sapiens, UniProt P06239); assay: Inhibition of His-tagged full length human recombinant LCK expressed in baculovirus using Fluorescein-Poly GT as substrate
[3] = molecular target: T2, Tyrosine-protein kinase Fyn (Homo sapiens, UniProt P06241); assay: Inhibition of His-tagged full length human recombinant FYN expressed in baculovirus using Fluorescein-Poly GT as substrate
Target sequence in this assay (P06241 whole entry, the tested form may be a part): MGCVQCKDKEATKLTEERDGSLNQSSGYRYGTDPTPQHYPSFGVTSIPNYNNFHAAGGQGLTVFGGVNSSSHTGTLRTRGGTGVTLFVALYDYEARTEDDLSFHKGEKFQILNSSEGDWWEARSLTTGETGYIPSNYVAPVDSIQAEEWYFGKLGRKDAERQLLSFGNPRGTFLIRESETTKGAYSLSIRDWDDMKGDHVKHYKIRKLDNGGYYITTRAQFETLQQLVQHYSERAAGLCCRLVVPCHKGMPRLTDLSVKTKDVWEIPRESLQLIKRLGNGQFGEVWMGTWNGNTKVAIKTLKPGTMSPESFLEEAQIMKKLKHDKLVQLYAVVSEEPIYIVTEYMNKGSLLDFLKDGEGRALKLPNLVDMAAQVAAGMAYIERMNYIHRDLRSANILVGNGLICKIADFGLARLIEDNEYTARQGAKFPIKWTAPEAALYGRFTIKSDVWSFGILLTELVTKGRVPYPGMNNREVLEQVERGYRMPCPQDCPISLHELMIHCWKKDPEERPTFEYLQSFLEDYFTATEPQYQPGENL

Bcr/Abl fusion protein [4] = molecular target: Bcr/Abl fusion protein (Homo sapiens, UniProt P00519); assay type: cell-based, BaF3
Description: Inhibition of human wild type BCR-ABL expressed in mouse BAF3 cells assessed as inhibition of cell proliferation after 72 hrs by MTT assay

Bcr/Abl fusion protein [5] = molecular target: Bcr/Abl fusion protein (Homo sapiens, UniProt P00519, T315I); assay type: cell-based, BaF3
Description: Inhibition of human BCR-ABL T315I mutant expressed in mouse BAF3 cells assessed as inhibition of cell proliferation after 72 hrs by MTT assay

MDA-MB-231 = assay: Antiproliferative activity against human MDA-MB-231 cells after 72 hrs by MTT assay; assay type: functional, cell-based; settings: MDA-MB-231, 72 h
[6] = Cmax in Swiss mouse plasma at 20 mg/kg, po by LC/MS/MS analysis; assay type: ADME, organism-based; set-up: dose 20 mg/kg, route oral
hERG (KCNH2) = hERG (KCNH2) (Homo sapiens, UniProt Q12809); assay: Inhibition of human ERG expressed in HEK293 cells at 30 uM by patch clamp assay; assay type: cell-based; settings: HEK293 cells expressing human ERG
PBMC = assay: Hematotoxicity in human PHA/IL2-stimulated PBMC; assay type: cell-based
[7] = test system: Tyrosine-protein kinase ABL1 (Homo sapiens), P00519 [G250E]; assay: Inhibition of His-tagged full length human recombinant ABL G250E mutant expressed in baculovirus using Fluorescein-Poly GT as substrate at 100 nM
[8] = molecular target: Ephrin type-B receptor 2 (Homo sapiens) (UniProt P29323); assay: Inhibition of GST-tagged human recombinant EPHB2 (616 to 884 residues) expressed in baculovirus using Fluorescein-Poly GT as substrate at 100 nM
[9] = molecular target: T1, Tyrosine-protein kinase Lck; assay: Inhibition of His-tagged full length human recombinant LCK expressed in baculovirus using Fluorescein-Poly GT as substrate at 100 nM
[10] = molecular target: Tyrosine-protein kinase Lyn (Homo sapiens, UniProt P07948); assay: Inhibition of GST-tagged full length human recombinant LYNA expressed in baculovirus using Fluorescein-Poly GT as substrate at 100 nM
[11] = test system: Serine/threonine-protein kinase B-raf (Homo sapiens), P15056 [V600E]; assay: Inhibition of full length GST-tagged human recombinant BRAF V600E mutant expressed in baculovirus using Fluorescein-MAP2K1 as substrate at 100 nM
HepG2 = assay: Antiproliferative activity against human HepG2 cells after 72 hrs by MTT assay; assay type: functional, cell-based; settings: HepG2, 72 h
HT-29 = assay: Antiproliferative activity against human HT-29 cells after 72 hrs by MTT assay; assay type: functional, cell-based; settings: HT-29, 72 h
[12] = molecular target: NUAK family SNF1-like kinase 1 (Homo sapiens) (UniProt O60285); settings: 100 nM
Description: Inhibition of NUAK1 (unknown origin) at 100 nM

[13] = molecular target: Rho-associated protein kinase 2 (Homo sapiens) (UniProt O75116); settings: 100 nM
Description: Inhibition of GST-tagged human recombinant ROCK2 ( 1 to 552 residues) expressed in baculovirus using Fluorescein-PKC as substrate at 100 nM

[14] = molecular target: Serine/threonine-protein kinase PLK1 (Homo sapiens) (UniProt P53350); settings: 100 nM
Description: Inhibition of His-tagged full length human recombinant PLK1 expressed in baculovirus using at 100 nM

[15] = molecular target: Tyrosine-protein kinase SYK (Homo sapiens) (UniProt P43405); settings: 100 nM
Description: Inhibition of GST-tagged full length human recombinant SYK expressed in baculovirus using Fluorescein-Poly GT as substrate at 100 nM

[16] = molecular target: Tyrosine-protein kinase Tec (Homo sapiens) (UniProt P42680); settings: 100 nM
Description: Inhibition of His-tagged full length human recombinant TEC expressed in baculovirus using Fluorescein-Poly GT as substrate at 100 nM

[17] = molecular target: Vascular endothelial growth factor receptor 1 (Homo sapiens) (UniProt P17948); settings: 100 nM
Description: Inhibition of GST-tagged human recombinant VEGFR1 (781 to 1338 residues) expressed in baculovirus using Fluorescein-Poly GT as substrate at 100 nM

[18] = molecular target: Vascular endothelial growth factor receptor 3 (Homo sapiens) (UniProt P35916); settings: 100 nM
Description: Inhibition of GST-tagged human recombinant VEGFR3 (800 to 1297 residues) expressed in baculovirus using Fluorescein-Poly GT as substrate at 100 nM

[19] = molecular target: Ephrin type-B receptor 4 (Homo sapiens) (UniProt P54760); settings: 100 nM
Description: Inhibition of His-tagged human recombinant EPHB4 (561 to 987 residues) expressed in baculovirus using Fluorescein-Poly GT as substrate at 100 nM

[20] = molecular target: Macrophage colony-stimulating factor 1 receptor (Homo sapiens) (UniProt P07333); settings: 100 nM
Description: Inhibition of His-tagged human recombinant CSF1R (538 to 910 residues) expressed in baculovirus using Fluorescein-Poly GT as substrate at 100 nM

[21] = molecular target: T2, Tyrosine-protein kinase Fyn; settings: 100 nM
Description: Inhibition of His-tagged full length human recombinant FYN expressed in baculovirus using Fluorescein-Poly GT as substrate at 100 nM

[22] = molecular target: Mitogen-activated protein kinase 14 (Homo sapiens) (UniProt Q16539); settings: 100 nM
Mitogen-activated protein kinase 14 (Homo sapiens), sequence (Q16539 whole entry): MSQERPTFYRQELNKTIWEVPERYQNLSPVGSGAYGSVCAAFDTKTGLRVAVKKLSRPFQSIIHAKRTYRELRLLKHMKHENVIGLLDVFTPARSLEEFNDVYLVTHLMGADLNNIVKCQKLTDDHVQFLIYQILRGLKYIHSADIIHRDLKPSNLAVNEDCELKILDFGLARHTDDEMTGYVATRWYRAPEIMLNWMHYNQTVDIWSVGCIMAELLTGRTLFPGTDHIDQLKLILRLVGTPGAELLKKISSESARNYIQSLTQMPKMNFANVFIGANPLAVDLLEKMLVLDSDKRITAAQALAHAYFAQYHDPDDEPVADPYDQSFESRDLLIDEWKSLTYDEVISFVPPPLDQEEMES
Description: Inhibition of GST-tagged full length human recombinant p38alpha expressed in Escherichia coli using Fluorescein-Poly GT as substrate at 100 nM

[23] = molecular target: Platelet-derived growth factor receptor alpha (Homo sapiens, UniProt P16234); settings: 100 nM
Platelet-derived growth factor receptor alpha, sequence (P16234 whole entry): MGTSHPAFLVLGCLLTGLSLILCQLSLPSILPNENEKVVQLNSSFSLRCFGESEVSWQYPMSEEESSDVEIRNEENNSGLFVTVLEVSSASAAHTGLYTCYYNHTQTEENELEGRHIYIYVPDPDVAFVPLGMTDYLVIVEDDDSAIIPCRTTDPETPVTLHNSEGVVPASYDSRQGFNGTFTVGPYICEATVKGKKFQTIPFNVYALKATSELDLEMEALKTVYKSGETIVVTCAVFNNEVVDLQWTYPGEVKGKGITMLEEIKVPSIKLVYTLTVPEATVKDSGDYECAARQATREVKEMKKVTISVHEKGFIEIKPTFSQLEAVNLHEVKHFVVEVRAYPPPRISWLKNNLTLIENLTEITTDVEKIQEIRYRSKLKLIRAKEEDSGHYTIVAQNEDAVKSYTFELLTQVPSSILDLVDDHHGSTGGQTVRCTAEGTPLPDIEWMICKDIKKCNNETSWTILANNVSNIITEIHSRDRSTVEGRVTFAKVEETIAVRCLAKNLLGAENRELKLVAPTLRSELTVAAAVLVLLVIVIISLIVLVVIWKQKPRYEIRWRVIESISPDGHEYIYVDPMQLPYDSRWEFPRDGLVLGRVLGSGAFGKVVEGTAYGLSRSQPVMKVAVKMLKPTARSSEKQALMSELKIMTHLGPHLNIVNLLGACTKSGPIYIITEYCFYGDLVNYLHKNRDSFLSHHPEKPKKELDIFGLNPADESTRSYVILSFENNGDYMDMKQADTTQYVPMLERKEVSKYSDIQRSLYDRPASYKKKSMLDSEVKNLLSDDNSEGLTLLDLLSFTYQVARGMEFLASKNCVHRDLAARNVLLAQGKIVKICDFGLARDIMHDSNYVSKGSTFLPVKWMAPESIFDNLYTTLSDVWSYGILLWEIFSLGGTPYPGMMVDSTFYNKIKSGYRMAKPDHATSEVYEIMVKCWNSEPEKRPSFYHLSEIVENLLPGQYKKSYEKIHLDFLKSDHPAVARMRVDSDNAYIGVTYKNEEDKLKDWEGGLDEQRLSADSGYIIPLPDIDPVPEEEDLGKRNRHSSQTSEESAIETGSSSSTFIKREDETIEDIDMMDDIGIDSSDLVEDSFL
Description: Inhibition of GST-tagged human recombinant PDGFRalpha (550 to 1089 residues) expressed in baculovirus using Fluorescein-Poly GT as substrate at 100 nM

[24] = molecular target: High affinity nerve growth factor receptor (Homo sapiens) (UniProt P04629); settings: 100 nM
Description: Inhibition of His-tagged human recombinant TRKA (441 to 796 residues) expressed in baculovirus using Fluorescein-Poly GT as substrate at 100 nM

[25] = molecular target: Receptor-type tyrosine-protein kinase FLT3 (Homo sapiens) (UniProt P36888); settings: 100 nM
Description: Inhibition of His-tagged human recombinant FLT3 (564 to 958 residues) expressed in baculovirus using Fluorescein-Poly GT as substrate at 100 nM

[26] = molecular target: Aurora kinase B (Homo sapiens) (UniProt Q96GD4); settings: 100 nM
Description: Inhibition of full length His-tagged human recombinant Aurora B expressed in baculovirus using Fluorescein-CREBtide as substrate at 100 nM

[27] = molecular target: Cyclin-dependent kinase 1/cyclin B1 (Homo sapiens) (UniProt P06493+P14635); settings: 100 nM
Description: Inhibition of CDK1/cyclinB (unknown origin) at 100 nM

[28] = molecular target: Tyrosine-protein kinase Fes/Fps (Homo sapiens) (UniProt P07332); settings: 100 nM
Tyrosine-protein kinase Fes/Fps (Homo sapiens), sequence (P07332 whole entry): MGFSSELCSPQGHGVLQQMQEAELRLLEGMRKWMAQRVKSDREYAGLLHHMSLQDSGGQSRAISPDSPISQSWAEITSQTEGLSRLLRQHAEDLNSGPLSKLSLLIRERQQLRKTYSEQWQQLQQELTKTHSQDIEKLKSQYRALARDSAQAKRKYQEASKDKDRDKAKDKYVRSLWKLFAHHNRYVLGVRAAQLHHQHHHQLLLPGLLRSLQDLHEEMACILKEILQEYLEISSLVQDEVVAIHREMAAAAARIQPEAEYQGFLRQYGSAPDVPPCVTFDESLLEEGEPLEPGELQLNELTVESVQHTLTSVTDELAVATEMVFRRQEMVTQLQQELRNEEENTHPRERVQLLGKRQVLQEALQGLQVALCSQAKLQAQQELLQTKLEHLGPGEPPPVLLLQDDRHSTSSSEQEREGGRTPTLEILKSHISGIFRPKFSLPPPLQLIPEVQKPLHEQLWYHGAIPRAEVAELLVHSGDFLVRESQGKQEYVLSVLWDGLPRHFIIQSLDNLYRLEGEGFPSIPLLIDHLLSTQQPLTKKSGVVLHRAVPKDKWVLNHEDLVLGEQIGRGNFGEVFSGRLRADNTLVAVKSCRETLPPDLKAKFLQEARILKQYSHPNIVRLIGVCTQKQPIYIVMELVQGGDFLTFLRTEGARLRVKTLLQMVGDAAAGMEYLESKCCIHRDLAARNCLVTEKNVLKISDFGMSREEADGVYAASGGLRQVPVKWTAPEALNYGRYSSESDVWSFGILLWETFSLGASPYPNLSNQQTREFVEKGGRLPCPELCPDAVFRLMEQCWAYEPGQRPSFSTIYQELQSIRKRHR
Description: Inhibition of His-tagged full length human recombinant FES expressed in baculovirus using Fluorescein-Poly GT as substrate at 100 nM

[29] = molecular target: Fibroblast growth factor receptor 1 (Homo sapiens) (UniProt P11362); settings: 100 nM
Fibroblast growth factor receptor 1 (Homo sapiens), sequence (P11362 22-822 limits assumed): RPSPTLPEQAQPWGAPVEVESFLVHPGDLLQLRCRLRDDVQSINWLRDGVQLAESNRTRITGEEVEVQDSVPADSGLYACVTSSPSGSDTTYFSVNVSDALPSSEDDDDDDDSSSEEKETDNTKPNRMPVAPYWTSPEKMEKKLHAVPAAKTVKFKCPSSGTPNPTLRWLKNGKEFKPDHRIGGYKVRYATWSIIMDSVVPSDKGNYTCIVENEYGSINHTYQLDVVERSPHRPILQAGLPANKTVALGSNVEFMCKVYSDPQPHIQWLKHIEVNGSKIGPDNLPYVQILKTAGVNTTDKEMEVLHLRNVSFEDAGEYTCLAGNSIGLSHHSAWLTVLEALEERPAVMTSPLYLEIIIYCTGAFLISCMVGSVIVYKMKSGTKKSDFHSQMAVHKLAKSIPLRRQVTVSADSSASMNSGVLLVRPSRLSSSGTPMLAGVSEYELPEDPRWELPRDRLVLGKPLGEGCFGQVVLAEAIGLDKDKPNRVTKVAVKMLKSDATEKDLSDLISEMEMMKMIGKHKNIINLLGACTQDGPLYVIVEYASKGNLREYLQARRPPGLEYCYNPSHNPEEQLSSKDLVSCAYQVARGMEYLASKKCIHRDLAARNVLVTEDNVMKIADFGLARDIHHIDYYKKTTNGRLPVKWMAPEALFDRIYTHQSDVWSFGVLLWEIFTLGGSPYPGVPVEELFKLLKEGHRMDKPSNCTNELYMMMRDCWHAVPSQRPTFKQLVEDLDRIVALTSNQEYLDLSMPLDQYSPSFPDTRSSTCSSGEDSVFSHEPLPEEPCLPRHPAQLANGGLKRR
Description: Inhibition of His-tagged human recombinant FGFR1 (308 to 731 residues) expressed in baculovirus using Fluorescein-Poly GT as substrate at 100 nM

[30] = molecular target: Glycogen synthase kinase-3 beta (Homo sapiens) (UniProt P49841); settings: 100 nM
Description: Inhibition of GSK3B (unknown origin) at 100 nM

[31] = molecular target: Tyrosine-protein kinase JAK3 (Homo sapiens) (UniProt P52333); settings: 100 nM
Description: Inhibition of GST-tagged human recombinant JAK3 (781 to 1124 residues) expressed in baculovirus using GFP-ST AT1 as substrate at 100 nM

[32] = molecular target: Mitogen-activated protein kinase 1 (Homo sapiens) (UniProt P28482); settings: 100 nM
Mitogen-activated protein kinase 1 (Homo sapiens), sequence (P28482 whole entry): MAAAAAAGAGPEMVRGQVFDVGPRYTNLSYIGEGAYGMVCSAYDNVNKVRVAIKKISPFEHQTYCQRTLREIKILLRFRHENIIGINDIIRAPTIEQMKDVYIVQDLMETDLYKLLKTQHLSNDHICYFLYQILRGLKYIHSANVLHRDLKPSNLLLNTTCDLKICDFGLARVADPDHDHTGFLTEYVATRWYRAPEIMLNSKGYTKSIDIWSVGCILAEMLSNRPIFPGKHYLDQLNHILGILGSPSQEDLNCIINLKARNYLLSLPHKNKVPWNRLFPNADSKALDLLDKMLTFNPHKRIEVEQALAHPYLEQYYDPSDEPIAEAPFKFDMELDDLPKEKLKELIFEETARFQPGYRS
Description: Inhibition of GST-tagged full length human recombinant ERK2 expressed in Escherichia coli using GFP-AT F2 as substrate at 100 nM

[33] = molecular target: Megakaryocyte-associated tyrosine-protein kinase (Homo sapiens) (UniProt P42679); settings: 100 nM
Description: Inhibition of His-tagged full length human recombinant MATK expressed in Escherichia coli using Fluorescein-Poly GT as substrate at 100 nM

[34] = molecular target: Macrophage-stimulating protein receptor (Homo sapiens) (UniProt Q04912); settings: 100 nM
Description: Inhibition of GST-tagged human recombinant MST1R (983 to 1400 residues) expressed in baculovirus using Fluorescein-Poly GT as substrate at 100 nM

[35] = molecular target: Platelet-derived growth factor receptor beta (Homo sapiens) (UniProt P09619); settings: 100 nM
Platelet-derived growth factor receptor beta (Homo sapiens), sequence (P09619 whole entry, canonical isoform): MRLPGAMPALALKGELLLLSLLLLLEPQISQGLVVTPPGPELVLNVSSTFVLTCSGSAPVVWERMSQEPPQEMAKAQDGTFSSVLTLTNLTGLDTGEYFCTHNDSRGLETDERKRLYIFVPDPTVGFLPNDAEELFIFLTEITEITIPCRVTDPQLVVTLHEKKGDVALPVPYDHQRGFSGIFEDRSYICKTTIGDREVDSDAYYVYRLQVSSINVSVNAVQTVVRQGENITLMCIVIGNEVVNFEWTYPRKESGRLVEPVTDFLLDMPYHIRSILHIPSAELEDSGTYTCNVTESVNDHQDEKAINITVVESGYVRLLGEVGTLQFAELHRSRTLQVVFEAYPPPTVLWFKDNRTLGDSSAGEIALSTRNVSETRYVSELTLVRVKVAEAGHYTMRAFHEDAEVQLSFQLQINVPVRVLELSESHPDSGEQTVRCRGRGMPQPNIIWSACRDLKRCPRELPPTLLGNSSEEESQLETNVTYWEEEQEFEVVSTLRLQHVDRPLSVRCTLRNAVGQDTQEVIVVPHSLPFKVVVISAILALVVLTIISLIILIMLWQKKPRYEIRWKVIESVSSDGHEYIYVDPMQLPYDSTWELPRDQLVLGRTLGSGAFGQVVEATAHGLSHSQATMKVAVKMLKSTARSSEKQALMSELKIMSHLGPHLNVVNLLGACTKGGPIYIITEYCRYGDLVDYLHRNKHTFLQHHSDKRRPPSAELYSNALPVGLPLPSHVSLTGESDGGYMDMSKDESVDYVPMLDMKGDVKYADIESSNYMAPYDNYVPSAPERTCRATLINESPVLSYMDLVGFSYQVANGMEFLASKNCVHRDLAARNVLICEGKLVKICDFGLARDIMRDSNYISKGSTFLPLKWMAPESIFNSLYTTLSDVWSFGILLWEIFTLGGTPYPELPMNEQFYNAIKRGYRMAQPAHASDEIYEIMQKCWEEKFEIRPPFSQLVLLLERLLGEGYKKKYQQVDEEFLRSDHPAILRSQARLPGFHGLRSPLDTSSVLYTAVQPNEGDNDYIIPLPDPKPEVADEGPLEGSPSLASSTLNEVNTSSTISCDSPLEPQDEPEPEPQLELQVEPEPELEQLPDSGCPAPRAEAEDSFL
Description: Inhibition of His-tagged human recombinant PDGFRbeta (558 to 1106 residues) expressed in baculovirus using Fluorescein-Poly GT as substrate at 100 nM

[36] = molecular target: Phosphorylase b kinase gamma catalytic chain, liver/testis isoform (Homo sapiens) (UniProt P15735); settings: 100 nM
Description: Inhibition of human full length recombinant N-terminal GST-tagged PHKG2 expressed in baculovirus at 100 nM

[37] = molecular target: Phosphatidylinositol 4,5-bisphosphate 3-kinase catalytic subunit alpha isoform (Homo sapiens) (UniProt P42336); settings: 100 nM
Description: Inhibition of PI3Kalpha (unknown origin) at 100 nM

[38] = molecular target: Testis-specific serine/threonine-protein kinase 2 (Homo sapiens) (UniProt Q96PF2); settings: 100 nM
Description: Inhibition of His-tagged full length human recombinant TSSK2 expressed in baculovirus at 100 nM

## COC(=O)c1cc2cc(NCc3cc(NC(=O)c4cc(-n5cnc(C)c5)cc(C(F)(F)F)c4)ccc3C)cnc2[nH]1
[1]
  IC50: 62 nM
[2]
  IC50: 69 nM
[3]
  IC50: 131 nM
Bcr/Abl fusion protein [4]
  EC50: 0.04 nM
Bcr/Abl fusion protein [5]
  EC50: 1.8 nM
MDA-MB-231
  EC50: 158 nM
[6]
  Cmax: 610 ng/mL
hERG (KCNH2)
  inhibition at 30 µM: 26%
PBMC
  EC50: 1200 nM
[7]
  inhibition: > 80%
[8]
  inhibition: > 80%
[9]
  inhibition: > 80%
[10]
  inhibition: > 80%
[11]
  inhibition: > 80%
HepG2
  EC50: 38 nM
HT-29
  EC50: 37 nM
[12]
  inhibition: < 40%
[13]
  inhibition: < 40%
[14]
  inhibition: < 40%
[15]
  inhibition: < 40%
[16]
  inhibition: < 40%
[17]
  inhibition: < 40%
[18]
  inhibition: < 40%
[19]
  inhibition: < 40%
[20]
  inhibition: < 40%
[21]
  inhibition: < 40%
[22]
  inhibition: < 40%
[23]
  inhibition: < 40%
[24]
  inhibition: < 40%
[25]
  inhibition: < 40%
[26]
  inhibition: < 40%
[27]
  inhibition: < 40%
[28]
  inhibition: < 40%
[29]
  inhibition: < 40%
[30]
  inhibition: < 40%
[31]
  inhibition: < 40%
[32]
  inhibition: < 40%
[33]
  inhibition: < 40%
[34]
  inhibition: < 40%
[35]
  inhibition: < 40%
[36]
  inhibition: < 40%
[37]
  inhibition: < 40%
[38]
  inhibition: < 40%
